Molecular target: T1, human α1A adrenergic receptor (Homo sapiens, UniProt P35348)
T1 construct: host or cells: GeneBLAzer ADRA1A-NFAT-bla CHO-K1 cells
T1 sequence (P35348 1-466): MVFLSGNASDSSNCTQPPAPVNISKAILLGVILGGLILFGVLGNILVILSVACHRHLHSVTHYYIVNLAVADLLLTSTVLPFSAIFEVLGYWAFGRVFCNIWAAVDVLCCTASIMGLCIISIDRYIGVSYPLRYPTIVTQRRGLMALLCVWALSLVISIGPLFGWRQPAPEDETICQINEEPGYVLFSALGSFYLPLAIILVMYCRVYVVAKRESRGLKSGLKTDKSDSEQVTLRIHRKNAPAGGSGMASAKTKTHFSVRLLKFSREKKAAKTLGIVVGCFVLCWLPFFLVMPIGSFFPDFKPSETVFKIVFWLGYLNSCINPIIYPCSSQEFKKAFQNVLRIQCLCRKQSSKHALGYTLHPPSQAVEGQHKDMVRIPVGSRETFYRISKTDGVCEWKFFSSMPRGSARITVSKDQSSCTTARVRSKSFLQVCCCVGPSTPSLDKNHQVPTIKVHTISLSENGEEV
Experiment: Ca2+ mobilization assay in human α1A adrenergic receptor-expressing cells
Assay type: cell-based
Settings: for Emax at 10 µM: % activation at 10 μmol/L test compound, 100 μmol/L norepinephrine = 100%, well without test compound = 0%; for EC50: CHO-K1 cells expressing human α1A adrenergic receptor, Fluo-4 fluorescence, concentration giving 50% response of Emax, 4-parameter logistic regression
Description: CHO-K1 cells that highly express a human α1A adrenergic receptor (GeneBLAzer™ ADRA1A-NFAT-bla CHO-K1 Cells) were purchased from Thermo Fisher Scientific, Inc., and cultured according to the instructions.
The cultured human α1A adrenergic receptor-expressing cells were washed with D-PBS, then replaced with a loading buffer (2 μmol/L Fluo-4/AM, 1× PowerLoad, 2.5 mmol/L Probenecid-containing DMEM (high-glucose)) and incubated at 37° C. for 60 minutes in a 5% CO2 incubator. The cells were detached using 0.05% trypsin-EDTA solution, and suspended in an assay buffer ([…], 0.054 mol/L KCl, 1.8 mmol/L CaCl2), 1 mmol/L MgSO4, 0.11 mol/L glucose, 0.01 mol/L NaH2PO4·2H2O, […], pH 7.3) to be 500,000 cells/mL.
Test compounds were dissolved in dimethylsulfoxide, and diluted with an assay buffer containing 0.3% BSA. The final concentrations of the test compounds were set to fall within the range of 0.1 nmol/L to 10 μmol/L. As a reference compound, norepinephrine was set to have a final concentration within the range of 0.01 nmol/L to 100 μmol/L.
On a 384-well clear bottom black plate coated with poly-D-lysine (Corning Inc.), the above-described cell-suspended solution was dispersed in 40 μL each (20,000 cells/well) and allowed to stand for 10 minutes. The plate was transferred to a fluorescent imaging plate reader (FDSS7000, Hamamatsu Photonics K.K.), and measurements were started. After 1 minute from the start of the measurements, 20 μL of the test compound solutions or norepinephrine solution (total amount: 60 μL/well) was added to each well of the plate (final concentration: 0.1% BSA, 0.1% dimethylsulfoxide), and the temporal change in fluorescence intensity of Fluo-4 was further measured for 5 minutes (Ex 480 nm/Em 540 nm).
The normalized values (% activation) were used for subsequent analyses.
Emax values and EC50 values were calculated by creating a concentration-response curve of the test compounds using a 4-parameter logistic regression with XLFit, Emax value being defined as % activation of test compound at the concentration of 10 μmol/L, and EC50 value being defined as the concentration in which 50% response of the Emax values is shown.

`CC(Nc1ccccc1-c1cccnc1)c1c[nH]cn1` (single isomer, unassigned; (+)) [Example 36, (+)-N-(1-(1H-Imidazol-4-yl)ethyl)-2-(pyridin-3-yl)aniline] was tested, and the Emax at 10 µM was 86% and the EC50 was 3.7 nM.

`COc1cccc(-c2ccccc2NC(C)c2c[nH]cn2)n1` (single isomer, unassigned; (+)) [Example 39, (+)-N-(1-(1H-Imidazol-4-yl)ethyl)-2-(6-methoxypyridin-2-yl)aniline] showed an Emax at 10 µM of 94% and an EC50 of 1.9 nM.

With `CC(Nc1ccccc1-c1cscn1)c1c[nH]cn1` (single isomer, unassigned; (+)) [Example 40, (+)-N-(1-(1H-Imidazol-4-yl)ethyl)-2-(thiazol-4-yl)aniline] the Emax at 10 µM was 111% and the EC50 was 0.6 nM.

`CC(Oc1ccccc1-c1cccs1)c1c[nH]cn1` (single isomer, unassigned; (+)) [Example 79, (+)-4-(1-(2-(Thiophen-2-yl)phenoxy)ethyl)-1H-imidazole] showed an Emax at 10 µM of 108% and an EC50 of 4.5 nM.

For `c1csc(-c2cscc2NCc2c[nH]cn2)c1` [Example 1], the Emax at 10 µM was 103% and the EC50 was 0.8 nM.

`c1csc(-c2sccc2NCc2c[nH]cn2)c1` [Example 2, N-((1H-imidazol-4-yl)methyl)-[2,2′-bithiophen]-3-amine] showed an Emax at 10 µM of 105% and an EC50 of 0.9 nM.

Compound `c1cncc(-c2cscc2NCc2c[nH]cn2)c1` [Example 3, N-((1H-imidazol-4-yl)methyl)-4-(pyridin-3-yl)thiophen-3-amine] has an Emax at 10 µM of 92% and an EC50 of 0.3 nM.

With `COc1ccncc1-c1cscc1NCc1c[nH]cn1` [Example 4, N-((1H-imidazol-4-yl)methyl)-4-(4-methoxypyridin-3-yl)thiophen-3-amine] the Emax at 10 µM was 93% and the EC50 was 0.6 nM.

Compound `COc1cncc(-c2cscc2NCc2c[nH]cn2)c1` [Example 5, N-((1H-imidazol-4-yl)methyl)-4-(5-methoxypyridin-3-yl)thiophen-3-amine] has an Emax at 10 µM of 98% and an EC50 of 0.3 nM.

`Fc1cncc(-c2cscc2NCc2c[nH]cn2)c1` [Example 6, N-((1H-imidazol-4-yl)methyl)-4-(5-fluoropyridin-3-yl)thiophen-3-amine] was tested, and the Emax at 10 µM was 92% and the EC50 was 1.1 nM.

`c1cncc(-c2sccc2NCc2c[nH]cn2)c1` [Example 7, N-((1H-imidazol-4-yl)methyl)-2-(pyridin-3-yl)thiophen-3-amine] gave an Emax at 10 µM of 92% and an EC50 of 4.5 nM.

For `c1cc(-c2cscc2NCc2c[nH]cn2)[nH]n1` [Example 8, N-((1H-imidazol-4-yl)methyl)-4-(1H-pyrazol-5-yl)thiophen-3-amine], the Emax at 10 µM was 96% and the EC50 was 1.2 nM.

Compound `c1cncc(-c2ccccc2NCc2c[nH]cn2)c1` [Example 9, N-((1H-imidazol-4-yl)methyl)-2-(pyridin-3-yl)aniline] has an Emax at 10 µM of 101% and an EC50 of 2.1 nM.

`c1ccc(-c2cncnc2)c(NCc2c[nH]cn2)c1` [Example 10, N-((1H-imidazol-4-yl)methyl)-2-(pyrimidin-5-yl)aniline] was tested, and the Emax at 10 µM was 103% and the EC50 was 3.8 nM.

`c1ccc(-c2cncs2)c(NCc2c[nH]cn2)c1` [Example 11, N-((1H-imidazol-4-yl)methyl)-2-(thiazol-5-yl)aniline] gave an Emax at 10 µM of 104% and an EC50 of 1.8 nM.

`c1csc(-c2cscc2NCc2c[nH]cn2)n1` [Example 12, N-((1H-imidazol-4-yl)methyl)-4-(thiazol-2-yl)thiophen-3-amine] gave an Emax at 10 µM of 101% and an EC50 of 0.4 nM.

`c1cnc(-c2cscc2NCc2c[nH]cn2)cn1` [Example 13, N-((1H-imidazol-4-yl)methyl)-4-(pyrazin-2-yl)thiophen-3-amine] was tested, and the Emax at 10 µM was 101% and the EC50 was 1.1 nM.

`c1nc(CNc2cscc2-c2cscn2)c[nH]1` [Example 14, N-((1H-imidazol-4-yl)methyl)-4-(thiazol-4-yl)thiophen-3-amine] gave an Emax at 10 µM of 88% and an EC50 of 2.2 nM.

In the case of `c1ccc(-c2cscn2)c(NCc2c[nH]cn2)c1` [Example 15, N-((1H-imidazol-4-yl)methyl)-2-(thiazol-4-yl)aniline], the Emax at 10 µM is reported as 98% and the EC50 is reported as 0.1 nM.

From US20260132126A1, “IMIDAZOLE DERIVATIVES” (SANWA KAGAKU KENKYUSHO CO., LTD., priority 2022, published 2026)
